Experimental data taken from ChEMBL document CHEMBL1201862, “PubChem BioAssay data set” (2004).
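1) Cells in 96-well plates. 2) Compound, 48 h, 5 concentrations. 3) Linear interpolation between surrounding doses. 4) Unreached endpoint = highest concentration. GI50 marks 50% less growth.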 Activity calls are given as the source filed them. Rule as the data show it: active = GI50 up to about 1.1 µM and inactive = higher.

Legend:
Test in all cases: growth of human tumour cells (NCI), 48 h
OVCAR-4 = system: OVCAR-4
CAKI-1 = system: CAKI-1
K562 = system: K562
HT-29 = system: HT-29
HOP-92 = system: HOP-92
SR = system: SR
PC-3 = system: PC-3
NCI-H226 = system: NCI-H226
SK-OV-3 = system: SK-OV-3
CCRF-CEM = system: CCRF-CEM
HCT-15 = system: HCT-15
786-0 = system: 786-0
HL-60 = system: HL-60
OVCAR-3 = system: OVCAR-3
DU-145 = system: DU-145
SF-268 = system: SF-268
ACHN = system: ACHN
TK-10 = system: TK-10
SF-295 = system: SF-295
HCC 2998 = system: HCC 2998
IGROV-1 = system: IGROV-1
SK-MEL-2 = system: SK-MEL-2
M14 = system: M14
MDA-MB-435 = system: MDA-MB-435
UO-31 = system: UO-31
SF-539 = system: SF-539
RXF 393 = system: RXF 393
RPMI-8226 = system: RPMI-8226
SK-MEL-28 = system: SK-MEL-28
SW-620 = system: SW-620
SK-MEL-5 = system: SK-MEL-5
MOLT-4 = system: MOLT-4
HCT-116 = system: HCT-116
NCI/ADR-RES = system: NCI/ADR-RES
A498 = system: A498
UACC-257 = system: UACC-257
U-251 = system: U-251
MDA-N = system: MDA-N
OVCAR-5 = system: OVCAR-5
Hs-578T = system: Hs-578T
SNB-75 = system: SNB-75
LOX IMVI = system: LOX IMVI
T47D = system: T47D
KM12 = system: KM12
NCI-H23 = system: NCI-H23
MDA-MB-231 = system: MDA-MB-231
NCI-H460 = system: NCI-H460
HOP-62 = system: HOP-62
NCI-H522 = system: NCI-H522
EKVX = system: EKVX
MCF7 = system: MCF7
OVCAR-8 = system: OVCAR-8
UACC-62 = system: UACC-62
Malme-3M = system: Malme-3M
A549 = system: A549
SNB-19 = system: SNB-19
SN12C = system: SN12C
COLO 205 = system: COLO 205

## CC1=NN(c2cccc(Cl)c2)C2(SCC(=O)N2c2nc3ccccc3s2)/C1=C\c1ccccc1 (stereo not drawn)
OVCAR-4
  GI50: 16.7 µM (inactive)
CAKI-1
  GI50: 20 µM (inactive)
K562
  GI50: 17.6 µM (inactive)
HT-29
  GI50: 21 µM (inactive)
HOP-92
  GI50: 7.21 µM (inactive)
SR
  GI50: 22.3 µM (inactive)
PC-3
  GI50: 23.6 µM (inactive)
NCI-H226
  GI50: 19 µM (inactive)
SK-OV-3
  GI50: 19.9 µM (inactive)
CCRF-CEM
  GI50: 28.2 µM (inactive)
HCT-15
  GI50: 16 µM
786-0
  GI50: 16.6 µM (inactive)
HL-60
  GI50: 30.1 µM (inactive)
OVCAR-3
  GI50: 20.8 µM (inactive)
DU-145
  GI50: 22 µM (inactive)
SF-268
  GI50: 21.4 µM (inactive)
ACHN
  GI50: 19.6 µM (inactive)
TK-10
  GI50: 40.6 µM (inactive)
SF-295
  GI50: 21.6 µM (inactive)
HCC 2998
  GI50: 14.2 µM (inactive)
IGROV-1
  GI50: 17.9 µM (inactive)
SK-MEL-2
  GI50: 22.5 µM (inactive)
M14
  GI50: 23.7 µM (inactive)
MDA-MB-435
  GI50: 18.3 µM (inactive)
UO-31
  GI50: 20.1 µM (inactive)
SF-539
  GI50: 26.4 µM (inactive)
RXF 393
  GI50: 21.6 µM (inactive)
RPMI-8226
  GI50: 18.7 µM (inactive)
SK-MEL-28
  GI50: 27.5 µM (inactive)
SW-620
  GI50: 19.6 µM (inactive)
SK-MEL-5
  GI50: 12.6 µM (inactive)
MOLT-4
  GI50: 21.2 µM (inactive)
HCT-116
  GI50: 15.9 µM (inactive)
NCI/ADR-RES
  GI50: 24.9 µM (inactive)
A498
  GI50: 23.2 µM (inactive)
UACC-257
  GI50: 21.9 µM (inactive)
U-251
  GI50: 19.7 µM (inactive)
MDA-N
  GI50: 20.9 µM (inactive)
OVCAR-5
  GI50: 22.4 µM (inactive)
Hs-578T
  GI50: 18.4 µM (inactive)
SNB-75
  GI50: 86.5 µM (inactive)
LOX IMVI
  GI50: 25.5 µM (inactive)
T47D
  GI50: 27.1 µM (inactive)
KM12
  GI50: 16.1 µM (inactive)
NCI-H23
  GI50: 20.2 µM (inactive)
MDA-MB-231
  GI50: 24.4 µM (inactive)
NCI-H460
  GI50: 15.3 µM (inactive)
HOP-62
  GI50: 22.3 µM (inactive)
NCI-H522
  GI50: 14.6 µM (inactive)
EKVX
  GI50: 36.4 µM (inactive)
MCF7
  GI50: 23.6 µM (inactive)
OVCAR-8
  GI50: 19.5 µM (inactive)

## Oc1c(Cl)c(Cl)c(O)c(CCNc2ccc3ncccc3c2)c1Cl
OVCAR-4
  GI50: 79.6 µM (inactive)
CAKI-1
  GI50: 12.6 µM (inactive)
K562
  GI50: 3.47 µM (inactive)
HT-29
  GI50: 30.1 µM (inactive)
HOP-92
  GI50: 30.5 µM (inactive)
UACC-62
  GI50: 10.9 µM (inactive)
SR
  GI50: 3.14 µM (inactive)
Malme-3M
  GI50: 18.6 µM (inactive)
PC-3
  GI50: 28 µM (inactive)
SK-OV-3
  GI50: 11.8 µM (inactive)
HCT-15
  GI50: 14.9 µM
786-0
  GI50: 16.5 µM (inactive)
HL-60
  GI50: 5.07 µM (inactive)
OVCAR-3
  GI50: 15.5 µM (inactive)
DU-145
  GI50: 21.5 µM (inactive)
SF-268
  GI50: 5.13 µM (inactive)
ACHN
  GI50: 13.7 µM (inactive)
TK-10
  GI50: 13.4 µM (inactive)
A549
  GI50: 17.2 µM (inactive)
SF-295
  GI50: 11.4 µM (inactive)
HCC 2998
  GI50: 12.9 µM (inactive)
IGROV-1
  GI50: 5 µM (inactive)
SK-MEL-2
  GI50: 6.32 µM (inactive)
M14
  GI50: 11.5 µM (inactive)
MDA-MB-435
  GI50: 5.2 µM (inactive)
UO-31
  GI50: 12.2 µM (inactive)
SF-539
  GI50: 12.5 µM (inactive)
SNB-19
  GI50: 13.3 µM (inactive)
RXF 393
  GI50: 18.9 µM (inactive)
SK-MEL-28
  GI50: 24.5 µM (inactive)
SW-620
  GI50: 4.63 µM (inactive)
SK-MEL-5
  GI50: 1.88 µM (inactive)
MOLT-4
  GI50: 1.15 µM (inactive)
HCT-116
  GI50: 14.5 µM (inactive)
NCI/ADR-RES
  GI50: 12.2 µM (inactive)
UACC-257
  GI50: 17.9 µM (inactive)
U-251
  GI50: 8.87 µM (inactive)
OVCAR-5
  GI50: 20.9 µM (inactive)
Hs-578T
  GI50: 5.04 µM (inactive)
SNB-75
  GI50: 16.1 µM (inactive)
T47D
  GI50: 11 µM (inactive)
KM12
  GI50: 3.91 µM (inactive)
NCI-H23
  GI50: 10.2 µM (inactive)
NCI-H460
  GI50: 18.9 µM (inactive)
HOP-62
  GI50: 12.5 µM (inactive)
SN12C
  GI50: 13.9 µM (inactive)
NCI-H522
  GI50: 2.17 µM (inactive)
EKVX
  GI50: 16.7 µM (inactive)
MCF7
  GI50: 4.76 µM (inactive)
OVCAR-8
  GI50: 12.1 µM (inactive)
COLO 205
  GI50: 6.55 µM (inactive)
